Drawing on US5476841A, “Inhibitors of herpes viral ribonucleotide reductase” (Bio-Mega/Boehringer Ingelheim Research Inc., priority 1994, dated 1995), this text covers EC50 and IC50 for four compounds.

Molecules are shown by their SMILES. Where a SMILES comes first, the peptide text is derived from it. [ ]: non-standard residue; d: D form. The star is where a group is joined. Asp(3,3-(CH2)4) = N[C@H](C(=O)O)C1(C(=O)O)CCCC1; Dibenzylacetyl = O=C(C(Cc1ccccc1)Cc1ccccc1)*; Leu(γ-Me)ol = CC(C)(C)C[C@@H](CO)N*; tBuAla = CC(C)(C)C[C@H](N)C(=O)O; Tle = CC(C)(C)[C@H](N)C(=O)O; NMeV = CN[C@H](C(=O)O)C(C)C; X1 = CC[C@@H](N*)C(C)(C)C; Pyrrolidide = C1CCN(*)C1; NHCH2tBu = CC(C)(C)CN*

One experiment relates to HSV-2. Description: Inhibition of Herpes Simplex virus (HSV-2) replication in cell culture. The experiment is classed as cell-based. The conditions noted are these: BHK-21/C13 cells, serum starved, HSV-2 strain HG-52, 0.02 PFU/cell, 29 h incubation; read-out: EC50, concentration effecting a 50% inhibition of HSV-2 virus replication. The protocol: Inhibition of Herpes Simplex virus (HSV-2) Replication in Cell Culture
BHK-21/C13 cells (ATCC CCL 10) are incubated for two days in 150 cm^2 T-flasks (1.5×10^6 cells/flask) with alpha-MEM medium (Gibco Canada Inc., Burlington, Ontario, Canada) supplemented with 8% (v/v) fetal bovine serum (FBS, Gibco Canada Inc.). The cells are trypsinized and then transferred to fresh media in a 24 well plate to give 2.5×10^5 cells in 750 μL of media per well. The cells are incubated at 37° for a period of 6 h to allow them to adhere to the plate. Thereafter, the cells are washed once with 500 μL of alpha-MEM supplemented with 0.5% (v/v) FBS and then incubated with 750 μL of the same media (low serum) for 3 days. After this period of serum starvation, the low serum medium is removed and the cells are incubated in 500 μL of BBMT for 2 to 3 hours. {BBMT medium is described by P. Brazeau et al., Proc. Natl. Acad. Sci. USA, 79, 7909 (1982).} Thereafter, the cells are infected with HSV-2 (multiplicity of infection=0.02 PFU/cell) in 100 μL of BBMT medium. (Note: The HSV-2 used was strain HG-52, see Y. Langelier and G. Buttin, J. Gen. Virol., 57, 21 (1981); the virus was stored at -80°.) Following 1 h of virus adsorption at 37°, the media is removed and the cells are washed with BBMT (3×250 μL). The cells in each well are incubated with or without (control) appropriate concentrations of the test agent dissolved in 200 μL of BBMT medium. After 29 h of incubation at 37°, the infected cells are harvested by first freezing the plate at -80°, followed by thawing. The cells in each well are scraped off the surface of the well with the help of the melting ice fragments. After complete thawing, the cell suspensions are collected and each well is rinsed with 150 μL of BBMT medium. The viral sample (suspension plus washing) is sonicated gently for 4 min at 4°. Cell debris are removed by centrifugation (1000 times gravity for 10 minutes at 4°). The supernatant is collected and stored at -80° until determination of viral titer.
Viral titration was performed by a modification of the colorimetric assay method of M. Langlois et al., Journal of Biological Standardization, 14, 201 (1986), and which is described in detail by R. Deziel and Y. Guindon, supra.
Accordingly, the percentage of virus growth inhibition can be determined for the various concentrations of the test agent, and the concentration of the test agent (i.e. the peptide of formula 1) effecting a 50% inhibition of virus replication, i.e. the EC50, can be calculated.

Experiment [1] addresses T1, HSV-1 ribonucleotide reductase (Human herpesvirus 1, UniProt P08543).
T1 construct: obtained from quiescent BHK-21/C13 cells infected with strain F HSV-1 virus; made in house; host or cells: quiescent BHK-21/C13 cells infected with HSV-1 strain F (virus-encoded enzyme, partially purified)
Description: Inhibition of Herpes Simplex virus (HSV-1) ribonucleotide reductase. The conditions noted are these: partially purified enzyme from HSV-1 strain F infected BHK-21/C13 cells; mean of four assays; read-out: IC50, concentration causing a 50% reduction of the HSV-1 ribonucleotide reductase activity. The experiment is classed as biochemical. An excerpt: Inhibition of Herpes Simplex virus (HSV-1) Ribonucleotide Reductase
HSV-1 ribonucleotide reductase (partially purified) was obtained from quiescent BHK-21/C13 cells infected with strain F HSV-1 virus at 10 plaque forming units/cell as described by E. A. Cohen et al., J. Gen. Virol., 66, 733 (1985).
The assay described by P. Gaudreau et al., J. Biol. Chem., 262, 12413 (1987), is used to evaluate the capability of the compounds of this invention to inhibit HSV-1 ribonucleotide reductase activity. Results are expresed as the concentration of the compound producing 50% of the maximal inhibition (IC50) of enzyme activity. The number of units of the enzyme preparation used in each assay was constant, based on the specific activity of the enzyme preparation. The results are relative to the activity obtained in control experiments without the test compound and represent the mean of four assays that varied less than 10% with each other.

T1 sequence (P08543 whole entry): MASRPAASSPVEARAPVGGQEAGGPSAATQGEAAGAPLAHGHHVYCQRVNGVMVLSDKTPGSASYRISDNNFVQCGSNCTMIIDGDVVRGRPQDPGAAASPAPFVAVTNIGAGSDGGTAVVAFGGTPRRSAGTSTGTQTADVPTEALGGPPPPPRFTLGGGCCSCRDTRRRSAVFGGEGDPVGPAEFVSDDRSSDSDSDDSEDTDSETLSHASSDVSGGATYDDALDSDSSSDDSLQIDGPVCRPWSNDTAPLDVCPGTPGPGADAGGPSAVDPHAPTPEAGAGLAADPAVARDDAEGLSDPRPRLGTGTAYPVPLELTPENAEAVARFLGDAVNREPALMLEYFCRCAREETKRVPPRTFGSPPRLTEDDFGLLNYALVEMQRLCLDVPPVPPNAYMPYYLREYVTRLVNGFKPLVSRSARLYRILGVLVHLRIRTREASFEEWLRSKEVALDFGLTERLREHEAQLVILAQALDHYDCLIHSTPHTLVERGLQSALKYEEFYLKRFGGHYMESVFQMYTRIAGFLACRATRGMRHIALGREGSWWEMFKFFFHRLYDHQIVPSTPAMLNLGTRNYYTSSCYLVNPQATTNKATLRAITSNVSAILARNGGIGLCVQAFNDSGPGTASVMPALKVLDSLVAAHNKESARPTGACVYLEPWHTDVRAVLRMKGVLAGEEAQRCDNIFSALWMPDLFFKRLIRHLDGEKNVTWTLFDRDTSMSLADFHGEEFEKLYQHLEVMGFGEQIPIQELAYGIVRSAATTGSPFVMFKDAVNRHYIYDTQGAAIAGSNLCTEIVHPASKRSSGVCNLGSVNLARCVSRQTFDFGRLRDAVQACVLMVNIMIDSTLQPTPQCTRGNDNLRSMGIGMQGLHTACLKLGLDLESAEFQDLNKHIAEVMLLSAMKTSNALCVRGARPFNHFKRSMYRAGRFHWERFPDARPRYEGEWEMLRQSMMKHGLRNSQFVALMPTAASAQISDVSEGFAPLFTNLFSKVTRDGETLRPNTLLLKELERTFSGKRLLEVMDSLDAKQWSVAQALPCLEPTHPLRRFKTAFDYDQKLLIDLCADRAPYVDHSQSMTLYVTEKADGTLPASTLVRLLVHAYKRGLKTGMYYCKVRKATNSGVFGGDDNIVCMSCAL

Regarding `CC(C)[C@@H](C(=O)N[C@H](C(=O)N[C@@H](CC(=O)N1CCCC1)C(=O)N[C@H](C(=O)N[C@@H](CC(C)(C)C)C(=O)O)C1(C(=O)O)CCCC1)C(C)(C)C)N(C)C(=O)C(Cc1ccccc1)Cc1ccccc1` [(PhCH2)2 CHC(O)--(N-Me)-Val-Tbg-Asp (pyrrolidino)-Asp(cyPn)-γMeLeu-OH] (Dibenzylacetyl-[NMeV][Tle]D(Pyrrolidide)[Asp(3,3-(CH2)4)][tBuAla]-OH), the EC50 in the experiment on HSV-2 came to 6000 nM.
On to `CC(C)[C@@H](C(=O)N[C@H](C(=O)N[C@@H](CC(=O)N1CCCC1)C(=O)N[C@H](C(=O)N[C@H](CO)CC(C)(C)C)C1(C(=O)O)CCCC1)C(C)(C)C)N(C)C(=O)C(Cc1ccccc1)Cc1ccccc1` [Example 3, (PhCH2)2 CHC(O)--(N-Me)-Val-Tbg-Asp(pyrrolidino)-Asp(cyPn)-γMeLeucinol] (Dibenzylacetyl-[NMeV][Tle]D(Pyrrolidide)[Asp(3,3-(CH2)4)]-{Leu(γ-Me)ol}), for which the IC50 in experiment [1] was found to be 170 nM. Besides, the EC50 in the experiment on HSV-2 turned out to be 3000 nM.
On to `CC[C@@H](NC(=O)[C@@H](NC(=O)[C@H](CC(=O)N1CCCC1)NC(=O)[C@@H](NC(=O)[C@H](C(C)C)N(C)C(=O)C(Cc1ccccc1)Cc1ccccc1)C(C)(C)C)C1(C(=O)O)CCCC1)C(C)(C)C` [(PhCH2)2 CHC (O)--(N-Me)-Val-Tbg-Asp(pyrrolidino)-Asp(cyPn)-NH--(R)--CH(C2 H5)C(CH3)3] (Dibenzylacetyl-[NMeV][Tle]D(Pyrrolidide)[Asp(3,3-(CH2)4)]-X1), for which the EC50 with HSV-2 is under 2000 nM.
Consider `CC(C)[C@@H](C(=O)N[C@H](C(=O)N[C@@H](CC(=O)N1CCCC1)C(=O)N[C@H](C(=O)NCC(C)(C)C)C1(C(=O)O)CCCC1)C(C)(C)C)N(C)C(=O)C(Cc1ccccc1)Cc1ccccc1` [(PhCH2)2 CHC(O)--(N-Me)-Val-Tbg-Asp(pyrrolidino)-Asp(cyPn)-NHCH2 C(CH3)3] (Dibenzylacetyl-[NMeV][Tle]D(Pyrrolidide)[Asp(3,3-(CH2)4)]-NHCH2tBu), for which the EC50 in the experiment with HSV-2 came to 1600 nM.
